Test results from patent publication US20260258032A1, “TYROSINE KINASE 2 INHIBITORS AND USES THEREOF” (BIOGEN MA INC., priority 2022, published 2026).
pIC50: −log10 of the molar value. Where a name gives a salt, the structure may show the parent alone.

Legend:
JH2 domain of human Tyk2 = target: T1, JH2 domain of human Tyk2 (Homo sapiens, UniProt P29597); experiment: JH2 biochemical assay (TR-FRET probe displacement); type: binding; details: JH2 biochemical assay
T1 construct: 10×His-tagged TYK2 JH2 domain (amino acid 575-876)
In short: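 A probe-displacement TR-FRET readout: compounds, tested in 3-fold, 10-point dilutions starting at […], compete with 2 nM tracer for 2 nM His-tagged JH2 (residues 575-876) detected by 0.1 nM Tb-anti-His over 60 min. IC50 comes from 4-parameter fits of normalized 520/495 nm ratios.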

[1] = test system: Tyk2 kinase activity on STAT4; experiment: pSTAT4 cell assay (MSD, NK92 cells); type: cell-based; details: compounds 1 hr, stimulated 15 minutes
In short: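 Read-out: phospho-STAT in NK92 lysates, MSD format, anti-STAT4 antibodies. Cells were serum-starved, given compound for 1 hr (10 μM top, four-fold, 10 points) and IL2-stimulated (30 ng/mL, 15 min). Normalized percent activity vs log concentration, 4-parameter logistic fit gave IC50.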

T1 sequence (P29597 575-876): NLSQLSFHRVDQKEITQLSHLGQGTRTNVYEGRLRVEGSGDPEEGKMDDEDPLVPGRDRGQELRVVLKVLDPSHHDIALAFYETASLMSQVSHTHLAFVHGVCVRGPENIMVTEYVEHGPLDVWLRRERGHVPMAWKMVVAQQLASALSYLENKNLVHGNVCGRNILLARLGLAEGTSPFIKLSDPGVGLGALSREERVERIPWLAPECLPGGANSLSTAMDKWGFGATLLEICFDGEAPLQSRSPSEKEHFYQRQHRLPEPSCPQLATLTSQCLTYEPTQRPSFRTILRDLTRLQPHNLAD

## CC(=O)Nc1cc2c(cn1)C1(CC1)CN2c1cc(NC2CCSC2)nc(C(C)(F)F)n1 (stereo not shown) [Example 181, N-(1′-(2-(1,1-difluoroethyl)-6-((tetrahydrothiophen-3-yl)amino)pyrimidin-4-yl)-1′,2′-dihydrospiro[cyclopropane-1,3′-pyrrolo[3,2-c]pyridin]-6′-yl)acetamide]
JH2 domain of human Tyk2
  pIC50: ≥ 8.00
[1]
  pIC50: 7.00 to 8.00

## CC(=O)Nc1cc2c(cn1)C1(CC1)CN2c1cc(NC2CC2C)nc(C(C)(F)F)n1 (stereo not shown) [Example 182, N-(1′-(2-(1,1-difluoroethyl)-6-((2-methylcyclopropyl)amino)pyrimidin-4-yl)-1′,2′-dihydrospiro[cyclopropane-1,3′-pyrrolo[3,2-c]pyridin]-6′-yl)acetamide trifluoroacetate]
JH2 domain of human Tyk2
  pIC50: ≥ 8.00
[1]
  pIC50: 7.00 to 8.00

## CC(=O)Nc1cc2c(cn1)C1(CC1)CN2c1cc(C)cc(N2CCN(C)C(C(F)F)C2)n1 (stereo not shown) [Example 183, N-(1′-(6-(3-(difluoromethyl)-4-methylpiperazin-1-yl)-4-methylpyridin-2-yl)-1′,2′-dihydrospiro[cyclopropane-1,3′-pyrrolo[3,2-c]pyridin]-6′-yl)acetamide]
JH2 domain of human Tyk2
  pIC50: 6.00 to 7.00
[1]
  pIC50: ≤ 6.00

## CC(=O)Nc1cc2c(cn1)C1(CC1)CN2c1cc(C)cc(N2CCC(F)(F)C2)n1 [Example 184, N-(1′-(6-(3,3-difluoropyrrolidin-1-yl)-4-methylpyridin-2-yl)-1′,2′-dihydrospiro[cyclopropane-1,3′-pyrrolo[3,2-c]pyridin]-6′-yl)acetamide]
JH2 domain of human Tyk2
  pIC50: 7.00 to 8.00
[1]
  pIC50: 6.00 to 7.00

## COCCOC1CCN(c2cc(C)cc(N3CC4(CC4)c4cnc(NC(C)=O)cc43)n2)C1 (stereo not shown) [Example 185, N-(1′-(6-(3-(2-methoxyethoxy)pyrrolidin-1-yl)-4-methylpyridin-2-yl)-1′,2′-dihydrospiro[cyclopropane-1,3′-pyrrolo[3,2-c]pyridin]-6′-yl)acetamide]
JH2 domain of human Tyk2
  pIC50: 6.00 to 7.00
[1]
  pIC50: ≤ 6.00

## CC(=O)Nc1cc2c(cn1)C1(CC1)CN2c1cc(C)cc(N2CCC(O)(C(F)(F)F)C2)n1 (stereo not shown) [Example 186, N-(1′-(6-(3-hydroxy-3-(trifluoromethyl)pyrrolidin-1-yl)-4-methylpyridin-2-yl)-1′,2′-dihydrospiro[cyclopropane-1,3′-pyrrolo[3,2-c]pyridin]-6′-yl)acetamide]
JH2 domain of human Tyk2
  pIC50: 6.00 to 7.00
[1]
  pIC50: ≤ 6.00

## CC(=O)Nc1cc2c(cn1)C1(CC1)CN2c1cc(C)cc(N2CC(O)C(O)C2)n1 (stereo not shown) [Example 187, N-(1′-(6-(3,4-dihydroxypyrrolidin-1-yl)-4-methylpyridin-2-yl)-1′,2′-dihydrospiro[cyclopropane-1,3′-pyrrolo[3,2-c]pyridin]-6′-yl)acetamide]
JH2 domain of human Tyk2
  pIC50: 6.00 to 7.00
[1]
  pIC50: ≤ 6.00

## COC1CCCN(c2cc(C)cc(N3CC4(CC4)c4cnc(NC(C)=O)cc43)n2)C1 (stereo not shown) [Example 188, N-(1′-(6-(3-methoxypiperidin-1-yl)-4-methylpyridin-2-yl)-1′,2′-dihydrospiro[cyclopropane-1,3′-pyrrolo[3,2-c]pyridin]-6′-yl)acetamide]
JH2 domain of human Tyk2
  pIC50: 6.00 to 7.00
[1]
  pIC50: ≤ 6.00

## CC(=O)Nc1cc2c(cn1)C1(CC1)CN2c1cc(C)cc(N2CCC(O)C2)n1 (stereo not shown) [Example 189, N-(1′-(6-(3-hydroxypyrrolidin-1-yl)-4-methylpyridin-2-yl)-1′,2′-dihydrospiro[cyclopropane-1,3′-pyrrolo[3,2-c]pyridin]-6′-yl)acetamide]
JH2 domain of human Tyk2
  pIC50: 7.00 to 8.00
[1]
  pIC50: ≤ 6.00

## CC(=O)Nc1cc2c(cn1)C1(CC1)CN2c1cc(C)cc(N(C)C)n1 [Example 190, N-(1′-(6-(dimethylamino)-4-methylpyridin-2-yl)-1′,2′-dihydrospiro[cyclopropane-1,3′-pyrrolo[3,2-c]pyridin]-6′-yl)acetamide]
JH2 domain of human Tyk2
  pIC50: 7.00 to 8.00
[1]
  pIC50: ≤ 6.00

## COCCNc1cc(C)cc(N2CC3(CC3)c3cnc(NC(C)=O)cc32)n1 [Example 191, N-(1′-(6-((2-methoxyethyl)amino)-4-methylpyridin-2-yl)-1′,2′-dihydrospiro[cyclopropane-1,3′-pyrrolo[3,2-c]pyridin]-6′-yl)acetamide]
JH2 domain of human Tyk2
  pIC50: 6.00 to 7.00
[1]
  pIC50: ≤ 6.00

## CC(=O)Nc1cc2c(cn1)C1(CC1)CN2c1cc(C)cc(N2CCC(N(C)C)C2)n1 (stereo not shown) [Example 192, N-(1′-(6-(3-(dimethylamino)pyrrolidin-1-yl)-4-methylpyridin-2-yl)-1′,2′-dihydrospiro[cyclopropane-1,3′-pyrrolo[3,2-c]pyridin]-6′-yl)acetamide trifluoroacetate]
JH2 domain of human Tyk2
  pIC50: 6.00 to 7.00
[1]
  pIC50: ≤ 6.00

## CC(=O)Nc1cc2c(cn1)C1(CC1)CN2c1cc(C)cc(N2CC(O)C2)n1 [Example 193, N-(1′-(6-(3-hydroxyazetidin-1-yl)-4-methylpyridin-2-yl)-1′,2′-dihydrospiro[cyclopropane-1,3′-pyrrolo[3,2-c]pyridin]-6′-yl)acetamide]
JH2 domain of human Tyk2
  pIC50: 7.00 to 8.00
[1]
  pIC50: ≤ 6.00

## CC(=O)Nc1cc2c(cn1)C1(CC1)CN2c1cc(C)cc(N2CC(C#N)C2)n1 [Example 194, N-(1′-(6-(3-cyanoazetidin-1-yl)-4-methylpyridin-2-yl)-1′,2′-dihydrospiro[cyclopropane-1,3′-pyrrolo[3,2-c]pyridin]-6′-yl)acetamide]
JH2 domain of human Tyk2
  pIC50: ≥ 8.00
[1]
  pIC50: ≤ 6.00

## CC(=O)Nc1cc2c(cn1)C1(CC1)CN2c1cc(C)cc(N2CC(F)C2)n1 [Example 195, N-(1′-(6-(3-fluoroazetidin-1-yl)-4-methylpyridin-2-yl)-1′,2′-dihydrospiro[cyclopropane-1,3′-pyrrolo[3,2-c]pyridin]-6′-yl)acetamide]
JH2 domain of human Tyk2
  pIC50: 7.00 to 8.00
[1]
  pIC50: ≤ 6.00

## CC(=O)Nc1cc2c(cn1)C1(CC1)CN2c1cc(C)cc(N2CC(C#N)(CF)C2)n1 [Example 196, N-(1′-(6-(3-cyano-3-(fluoromethyl)azetidin-1-yl)-4-methylpyridin-2-yl)-1′,2′-dihydrospiro[cyclopropane-1,3′-pyrrolo[3,2-c]pyridin]-6′-yl)acetamide]
JH2 domain of human Tyk2
  pIC50: 7.00 to 8.00
[1]
  pIC50: 6.00 to 7.00

## CCC1(C#N)CN(c2cc(C)cc(N3CC4(CC4)c4cnc(NC(C)=O)cc43)n2)C1 [Example 197, N-(1′-(6-(3-cyano-3-ethylazetidin-1-yl)-4-methylpyridin-2-yl)-1′,2′-dihydrospiro[cyclopropane-1,3′-pyrrolo[3,2-c]pyridin]-6′-yl)acetamide]
JH2 domain of human Tyk2
  pIC50: 7.00 to 8.00
[1]
  pIC50: ≤ 6.00

## CC(=O)Nc1cc2c(cn1)C1(CC1)CN2c1cc(C)cc(N2CC(OC(F)F)C2)n1 [Example 198, N-(1′-(6-(3-(difluoromethoxy)azetidin-1-yl)-4-methylpyridin-2-yl)-1′,2′-dihydrospiro[cyclopropane-1,3′-pyrrolo[3,2-c]pyridin]-6′-yl)acetamide]
JH2 domain of human Tyk2
  pIC50: 6.00 to 7.00
[1]
  pIC50: ≤ 6.00

## COCCC1(C#N)CN(c2cc(C)cc(N3CC4(CC4)c4cnc(NC(C)=O)cc43)n2)C1 [Example 199, N-(1′-(6-(3-cyano-3-(2-methoxyethyl)azetidin-1-yl)-4-methylpyridin-2-yl)-1′,2′-dihydrospiro[cyclopropane-1,3′-pyrrolo[3,2-c]pyridin]-6′-yl)acetamide]
JH2 domain of human Tyk2
  pIC50: 7.00 to 8.00
[1]
  pIC50: ≤ 6.00

## CC(=O)Nc1cc2c(cn1)C1(CC1)CN2c1cc(C)cc(N2CC(C)(C#N)C2)n1 [Example 200, N-(1′-(6-(3-cyano-3-methylazetidin-1-yl)-4-methylpyridin-2-yl)-1′,2′-dihydrospiro[cyclopropane-1,3′-pyrrolo[3,2-c]pyridin]-6′-yl)acetamide]
JH2 domain of human Tyk2
  pIC50: 7.00 to 8.00
[1]
  pIC50: 6.00 to 7.00

## CC(=O)Nc1cc2c(cn1)C1(CC1)CN2c1cc(C)cc(N2CC(C(F)F)C2)n1 [Example 201, N-(1′-(6-(3-(difluoromethyl)azetidin-1-yl)-4-methylpyridin-2-yl)-1′,2′-dihydrospiro[cyclopropane-1,3′-pyrrolo[3,2-c]pyridin]-6′-yl)acetamide trifluoroacetate]
JH2 domain of human Tyk2
  pIC50: 7.00 to 8.00
[1]
  pIC50: ≤ 6.00

## CC(=O)Nc1cc2c(cn1)C1(CC1)CN2c1cc(C)cc(N2CC(C#N)(C(F)F)C2)n1 [Example 202, N-(1′-(6-(3-cyano-3-(difluoromethyl)azetidin-1-yl)-4-methylpyridin-2-yl)-1′,2′-dihydrospiro[cyclopropane-1,3′-pyrrolo[3,2-c]pyridin]-6′-yl)acetamide]
JH2 domain of human Tyk2
  pIC50: 7.00 to 8.00
[1]
  pIC50: ≤ 6.00

## CC(=O)Nc1cc2c(cn1)C1(CC1)CN2c1cc(C)cc(N2CC(S(C)(=O)=O)C2)n1 [Example 203, N-(1′-(4-methyl-6-(3-(methylsulfonyl)azetidin-1-yl)pyridin-2-yl)-1′,2′-dihydrospiro[cyclopropane-1,3′-pyrrolo[3,2-c]pyridin]-6′-yl)acetamide]
JH2 domain of human Tyk2
  pIC50: 6.00 to 7.00
[1]
  pIC50: ≤ 6.00

## CCS(=O)(=O)C1CN(c2cc(C)cc(N3CC4(CC4)c4cnc(NC(C)=O)cc43)n2)C1 [Example 204, N-(1′-(6-(3-(ethylsulfonyl)azetidin-1-yl)-4-methylpyridin-2-yl)-1′,2′-dihydrospiro[cyclopropane-1,3′-pyrrolo[3,2-c]pyridin]-6′-yl)acetamide]
JH2 domain of human Tyk2
  pIC50: 6.00 to 7.00
[1]
  pIC50: ≤ 6.00

## CC(=O)Nc1cc2c(cn1)C1(CC1)CN2c1cc(C)cc(N2CC(C)(O)C2)n1 [Example 205, N-(1′-(6-(3-hydroxy-3-methylazetidin-1-yl)-4-methylpyridin-2-yl)-1′,2′-dihydrospiro[cyclopropane-1,3′-pyrrolo[3,2-c]pyridin]-6′-yl)acetamide]
JH2 domain of human Tyk2
  pIC50: 7.00 to 8.00
[1]
  pIC50: ≤ 6.00

## CC(=O)Nc1cc2c(cn1)C1(CC1)CN2c1cc(C)cc(N2CCOCC2)n1 [Example 206, N-(1′-(4-methyl-6-morpholinopyridin-2-yl)-1′,2′-dihydrospiro[cyclopropane-1,3′-pyrrolo[3,2-c]pyridin]-6′-yl)acetamide]
JH2 domain of human Tyk2
  pIC50: 7.00 to 8.00
[1]
  pIC50: 6.00 to 7.00
